Assay results taken from patent US10106627B2, “Process for the preparation of polymeric biosurfactants” (priority 2014, dated 2018).

How the values were obtained:
[1] = Critical micelle concentration; assay type: physicochemical
Protocol: The bacterial strains producing biosurfactants were isolated from the petroleum-contaminated soil sample collected from Mupkal, Nizamabad, Andhra Pradesh, India (latitude 18.90° N and longitude 78.36° E). The soil sample was enriched by placing 1.0 g of soil sample in 100 ml of mineral salts medium supplemented with N-hexadecane (1%, v/v) as a sole carbon source for three weeks. The enriched sample was serially diluted and then plated on the mineral salts agar plates overlaid with N-hexadecane which acted as a sole carbon source. The colonies that appeared on the plates upon incubation at 37° C. for 72 h were purified for 2-3 times on nutrient agar plates. The isolated pure microorganisms were cultured in liquid mineral salts medium at 37° C. for 72 h. The cells were separated by centrifugation and the cell-free supernatant was measured for the reduction in surface tension values by Wilhelmy plate method using a Du-Nouy K100MK2 Processor Tensiometer (Krüss, Hamburg, Germany). The concentration series was generated automatically with a computer-controlled Dosimat (Metrohm AG, Switzerland). […] The critical micelle concentration (CMC) was measured by plotting the concentration of surfactant as a function of surface tension, and the CMC was taken as the point where the slope of the curve abruptly changed. […]

[2] = Thermal degradation analysis (TGA/DSC); assay type: physicochemical
Protocol: The Microsan and Brevisan polymeric biosurfactants recovered and purified in Example 3 were subjected to structural characterization. The average molecular weight (Mw) of EPS was determined by gel permeation chromatography [Agilent 1100 Series HPLC system, TOSOH Corporation, Japan, equipped with a RID and a TSK G5000PWXL gel column (7.8×300 mm) and a TSK PWXL (6.0 mm×40 mm) guard column] using dextran standards ranging from 10680 to 578500 Da (Sigma, CAS No. 9004-54-0). The Fourier transform infrared spectra (FT-IR) were recorded on the Thermo-Nicolet Nexus 670 FT-IR spectrophotometer (Thermo Fisher Scientific Inc., Madison, Wis., U.S.A.) using KBr pellets containing 1% finely ground EPS samples and the spectra was collected at a resolution of 4 cm^−1 in the wavenumber region of 400-4,000 […]. The cross-polarization/magic angle spinning (CP/MAS) ^13C NMR experiments were performed on a Varian Unity Innova spectrometer operating at 400 MHz for ^1H and 100 MHz for ^13C at room temperature. […] Thermal degradation analyses of the EPS samples were measured using a DSC 821^c (Mettler Toledo GmbH, Switzerland) interfaced with Mettler Toledo Star SW (version 8.10) software. […] All of the XPS analyses were carried out in duplicates (two independent samples of each type of EPS analyzed at different time intervals). […]

## β-D-glucuronyl-(1-2)-D-mannosyl-(1-4)-D-glucose [Microsan]
[1]
  critical micelle concentration (CMC): 75 mg/L
[2]
  thermal degradation temperature (TGA): 280 °C
